Results from ChEMBL document CHEMBL1150522, “Preparation and antifungal activity of fusacandin analogs: C-6 sidechain esters” (1996).
≈ marks a conversion by molar mass, not a printed value.

How the values were obtained:
Assay type in all cases: functional
Candida albicans [1] = assay: Minimum inhibitory concentration against Candida albicans (ATCC 38247) in the presence of serum
Candida albicans [2] = assay: Minimum inhibitory concentration against Candida albicans (579a) in the presence of serum
Candida albicans [3] = assay: Minimum inhibitory concentration against Candida albicans (CCH 442) in the absence of serum.
Candida albicans [4] = assay: Minimum inhibitory concentration against Candida albicans (579a) in the absence of serum.
Candida albicans [5] = assay: Minimum inhibitory concentration against Candida albicans (ATCC 62376) in the absence of serum.
Candida albicans [6] = assay: Minimum inhibitory concentration against Candida albicans (ATCC 10231) in the presence of serum
Candida albicans [7] = assay: Minimum inhibitory concentration against Candida albicans (ATCC 38247) in the absence of serum.
Candida albicans [8] = assay: Minimum inhibitory concentration against Candida albicans (ATCC 62376) in the presence of serum
Candida albicans [9] = assay: Minimum inhibitory concentration against Candida albicans (ATCC 10231) in the absence of serum.
Candida albicans [10] = assay: Minimum inhibitory concentration against Candida albicans (CCH 442) in the presence of serum

Structure (SMILES): CCCCC/C=C/C=C/[C@@H](O)C/C=C/C=C/C(=O)O[C@@H]1[C@@H](O)[C@H](c2c(O)cc(O)cc2CO)O[C@H](CO)[C@H]1O[C@@H]1O[C@H](COC(=O)c2ccc(-c3ccc(OC)cc3)cc2)[C@H](O)[C@H](O)[C@H]1O[C@@H]1O[C@H](CO)[C@H](O)[C@H](O)[C@H]1O
- MIC (Candida albicans [1]): 3.12 µg/mL
- MIC (Candida albicans [2]): 1.56 µg/mL
- MIC (Candida albicans [3]): 6.25 µg/mL (≈ 5.77 µM)
- MIC (Candida albicans [4]): 12.5 µg/mL (≈ 11.5 µM)
- MIC (Candida albicans [5]): 12.5 µg/mL (≈ 11.5 µM)
- MIC (Candida albicans [6]): 0.78 µg/mL
- MIC (Candida albicans [7]): 25 µg/mL (≈ 23.1 µM)
- MIC (Candida albicans [8]): 0.78 µg/mL
- MIC (Candida albicans [9]): 12.5 µg/mL (≈ 11.5 µM)
- MIC (Candida albicans [10]): 0.78 µg/mL

Structure (SMILES): CCCCC/C=C/C=C/[C@@H](O)C/C=C/C=C/C(=O)O[C@@H]1[C@@H](O)[C@H](c2c(O)cc(O)cc2CO)O[C@H](CO)[C@H]1O[C@@H]1O[C@H](COC(=O)c2ccc(-c3ccc(OCCC)cc3)cc2)[C@H](O)[C@H](O)[C@H]1O[C@@H]1O[C@H](CO)[C@H](O)[C@H](O)[C@H]1O
- MIC (Candida albicans [1]): 0.78 µg/mL
- MIC (Candida albicans [2]): 0.78 µg/mL
- MIC (Candida albicans [3]): 6.25 µg/mL (≈ 5.62 µM)
- MIC (Candida albicans [4]): 25 µg/mL (≈ 22.5 µM)
- MIC (Candida albicans [5]): 12.5 µg/mL (≈ 11.2 µM)
- MIC (Candida albicans [6]): 0.78 µg/mL
- MIC (Candida albicans [7]): 25 µg/mL (≈ 22.5 µM)
- MIC (Candida albicans [8]): 0.78 µg/mL
- MIC (Candida albicans [9]): 12.5 µg/mL (≈ 11.2 µM)
- MIC (Candida albicans [10]): 0.78 µg/mL

Structure (SMILES): CCCCC/C=C/C=C/[C@@H](O)C/C=C/C=C/C(=O)O[C@@H]1[C@@H](O)[C@H](c2c(O)cc(O)cc2CO)O[C@H](CO)[C@H]1O[C@@H]1O[C@H](COC(=O)c2ccccc2)[C@H](O)[C@H](O)[C@H]1O[C@@H]1O[C@H](CO)[C@H](O)[C@H](O)[C@H]1O
- MIC (Candida albicans [1]): 6.25 µg/mL
- MIC (Candida albicans [2]): 6.25 µg/mL
- MIC (Candida albicans [3]): > 100 µg/mL
- MIC (Candida albicans [4]): > 100 µg/mL
- MIC (Candida albicans [5]): > 100 µg/mL
- MIC (Candida albicans [6]): 12.5 µg/mL
- MIC (Candida albicans [7]): > 100 µg/mL
- MIC (Candida albicans [8]): 12.5 µg/mL
- MIC (Candida albicans [9]): > 100 µg/mL
- MIC (Candida albicans [10]): 12.5 µg/mL

Structure (SMILES): CCCCC/C=C/C=C/[C@@H](O)C/C=C/C=C/C(=O)O[C@@H]1[C@@H](O)[C@H](c2c(O)cc(O)cc2CO)O[C@H](CO)[C@H]1O[C@@H]1O[C@H](COC(=O)c2cccc(-c3ccc(OC)cc3)c2)[C@H](O)[C@H](O)[C@H]1O[C@@H]1O[C@H](CO)[C@H](O)[C@H](O)[C@H]1O
- MIC (Candida albicans [1]): 1.56 µg/mL
- MIC (Candida albicans [2]): 0.78 µg/mL
- MIC (Candida albicans [3]): 100 µg/mL (≈ 92.3 µM)
- MIC (Candida albicans [4]): 50 µg/mL (≈ 46.2 µM)
- MIC (Candida albicans [5]): 25 µg/mL (≈ 23.1 µM)
- MIC (Candida albicans [6]): 1.56 µg/mL
- MIC (Candida albicans [7]): 100 µg/mL (≈ 92.3 µM)
- MIC (Candida albicans [8]): 3.12 µg/mL
- MIC (Candida albicans [9]): 50 µg/mL (≈ 46.2 µM)
- MIC (Candida albicans [10]): 1.56 µg/mL

Structure (SMILES): CCCCC/C=C/C=C/[C@@H](O)C/C=C/C=C/C(=O)O[C@@H]1[C@@H](O)[C@H](c2c(O)cc(O)cc2CO)O[C@H](CO)[C@H]1O[C@@H]1O[C@H](COC(=O)c2ccc(-c3ccccc3)cc2)[C@H](O)[C@H](O)[C@H]1O[C@@H]1O[C@H](CO)[C@H](O)[C@H](O)[C@H]1O
- MIC (Candida albicans [1]): 1.56 µg/mL
- MIC (Candida albicans [2]): 0.78 µg/mL
- MIC (Candida albicans [3]): 12.5 µg/mL (≈ 11.9 µM)
- MIC (Candida albicans [4]): 12.5 µg/mL (≈ 11.9 µM)
- MIC (Candida albicans [5]): 12.5 µg/mL (≈ 11.9 µM)
- MIC (Candida albicans [6]): 0.78 µg/mL
- MIC (Candida albicans [7]): 25 µg/mL (≈ 23.7 µM)
- MIC (Candida albicans [8]): 0.78 µg/mL
- MIC (Candida albicans [9]): 12.5 µg/mL (≈ 11.9 µM)
- MIC (Candida albicans [10]): 0.78 µg/mL

Structure (SMILES): CCCCC/C=C/C=C/[C@@H](O)C/C=C/C=C/C(=O)O[C@@H]1[C@@H](O)[C@H](c2c(O)cc(O)cc2CO)O[C@H](CO)[C@H]1O[C@@H]1O[C@H](COC(=O)c2ccc(Oc3ccccc3)cc2)[C@H](O)[C@H](O)[C@H]1O[C@@H]1O[C@H](CO)[C@H](O)[C@H](O)[C@H]1O
- MIC (Candida albicans [1]): 3.12 µg/mL
- MIC (Candida albicans [2]): 1.56 µg/mL
- MIC (Candida albicans [3]): 100 µg/mL (≈ 93.5 µM)
- MIC (Candida albicans [4]): 50 µg/mL (≈ 46.8 µM)
- MIC (Candida albicans [5]): > 100 µg/mL
- MIC (Candida albicans [6]): 3.12 µg/mL
- MIC (Candida albicans [7]): 50 µg/mL (≈ 46.8 µM)
- MIC (Candida albicans [8]): 3.12 µg/mL
- MIC (Candida albicans [9]): 50 µg/mL (≈ 46.8 µM)
- MIC (Candida albicans [10]): 3.12 µg/mL

Structure (SMILES): CCCCC/C=C/C=C/[C@@H](O)C/C=C/C=C/C(=O)O[C@@H]1[C@@H](O)[C@H](c2c(O)cc(O)cc2CO)O[C@H](CO)[C@H]1O[C@@H]1O[C@H](COC(=O)c2ccc(CCCC)cc2)[C@H](O)[C@H](O)[C@H]1O[C@@H]1O[C@H](CO)[C@H](O)[C@H](O)[C@H]1O
- MIC (Candida albicans [1]): 1.56 µg/mL
- MIC (Candida albicans [2]): 0.78 µg/mL
- MIC (Candida albicans [3]): > 100 µg/mL
- MIC (Candida albicans [4]): > 100 µg/mL
- MIC (Candida albicans [5]): > 100 µg/mL
- MIC (Candida albicans [6]): 3.12 µg/mL
- MIC (Candida albicans [7]): > 100 µg/mL
- MIC (Candida albicans [8]): 1.56 µg/mL
- MIC (Candida albicans [9]): > 100 µg/mL
- MIC (Candida albicans [10]): 3.12 µg/mL

Structure (SMILES): CCCCC/C=C/C=C/[C@@H](O)C/C=C/C=C/C(=O)O[C@@H]1[C@@H](O)[C@H](c2c(O)cc(O)cc2CO)O[C@H](CO)[C@H]1O[C@@H]1O[C@H](COC(=O)c2ccc(-c3ccc(-c4ccccc4)cc3)cc2)[C@H](O)[C@H](O)[C@H]1O[C@@H]1O[C@H](CO)[C@H](O)[C@H](O)[C@H]1O
- MIC (Candida albicans [1]): 3.12 µg/mL
- MIC (Candida albicans [2]): 0.78 µg/mL
- MIC (Candida albicans [3]): 12.5 µg/mL (≈ 11.1 µM)
- MIC (Candida albicans [4]): 12.5 µg/mL (≈ 11.1 µM)
- MIC (Candida albicans [5]): 12.5 µg/mL (≈ 11.1 µM)
- MIC (Candida albicans [6]): 1.56 µg/mL
- MIC (Candida albicans [7]): 25 µg/mL (≈ 22.1 µM)
- MIC (Candida albicans [8]): 0.78 µg/mL
- MIC (Candida albicans [9]): 12.5 µg/mL (≈ 11.1 µM)
- MIC (Candida albicans [10]): 0.78 µg/mL

Structure (SMILES): CCCCC/C=C/C=C/[C@@H](O)C/C=C/C=C/C(=O)O[C@@H]1[C@@H](O)[C@H](c2c(O)cc(O)cc2CO)O[C@H](CO)[C@H]1O[C@@H]1O[C@H](COC(=O)c2ccc(-c3ccc(OC(C)C)cc3)cc2)[C@H](O)[C@H](O)[C@H]1O[C@@H]1O[C@H](CO)[C@H](O)[C@H](O)[C@H]1O
- MIC (Candida albicans [1]): 0.78 µg/mL
- MIC (Candida albicans [2]): 0.78 µg/mL
- MIC (Candida albicans [3]): 6.25 µg/mL (≈ 5.62 µM)
- MIC (Candida albicans [4]): 12.5 µg/mL (≈ 11.2 µM)
- MIC (Candida albicans [5]): 12.5 µg/mL (≈ 11.2 µM)
- MIC (Candida albicans [6]): 1.56 µg/mL
- MIC (Candida albicans [7]): 25 µg/mL (≈ 22.5 µM)
- MIC (Candida albicans [8]): 0.78 µg/mL
- MIC (Candida albicans [9]): 12.5 µg/mL (≈ 11.2 µM)
- MIC (Candida albicans [10]): 0.78 µg/mL
